Experimental data published in patent US8492578B2, “Compounds useful in therapeutic and cosmetic methods” (Photoderma SA, priority 2007, dated 2013).
Entries after “also recorded” stand apart in the source; their conditions may differ. Read-outs that look alike come from different tables or passages of the source.

What was measured:
[1] = literature reports and Metvix package leaflet; cited from earlier work
[2] = tested on: stratum corneum; experiment: PpIX fluorescence on intact skin vs skin with stratum corneum removed (permeability through stratum corneum); assay type: in vivo, human; settings: for Fluoresence epidermis: Cold cream formulation, 3 hours after topical administration; for increase of fluorescence upon removal of the stratum corneum: SC removed vs intact skin
Experimental: Permeability of compounds of the invention through the stratum corneum is assessed by measurements of fluorescence of PpIX. The expression “PpIX”, for the purpose of the present specification, stands for PpIX as reported in the literature and other natural porphyrins producing a fluorescent signal following illumination with suitable light. Permeability of the compounds of the present invention is determined by comparing PpIX-induced fluorescence of compounds of the invention applied on the surface of intact skin with fluorescence induced by the same compounds applied on skin from which the stratum corneum has been removed.
The stratum corneum was removed by dry shaving with a razor blade (BIC Classic 1 lame). The lame is gently swept 8 times over the skin without using water, razor foam or any other lubricant.
Formulations comprising compounds of the invention and controls are administered topically on the forearm or the leg using the Tegaderm™ transparent dressing. This dressing enables the transport of water and oxygen according to the specifications of the manufacturer. This dressing was removed and the remaining formulation cleaned with water just before the measurements.
A fluorescence imaging system illustrated in FIG. IX of WO 03/041673 is used to assess the extent and level of PpIX production in “macroscopic” samples (parts of the human body such as: forearm, leg, back, etc.). The experimental equipment and descriptions, as well as the ALA-DGME compounds disclosed therein are expressly incorporated herein by reference. As the goal is to assess the relative level of PpIX, red light at 635 nm is chosen as PpIX fluorescence excitation wavelength. It is indeed well known that red light penetrates deeper in the cutaneous tissues than green and violet light, the later two wavelengths corresponding to larger PpIX absorption peaks (see the PpIX fluorescence excitation and emission spectra presented on the right side in FIG. IX of WO 03/041673).
As presented in the schematic diagram presented in FIG. IX of WO 03/041673, this fluorescence imaging system involves a modified 300 W D-light source 1 (Xe arc lamp from Storz, Tuttlingen, Germany) equipped with a red bandpass filter (635 nm, 20 nm FWHM; Chroma, USA). This fluorescence excitation light is coupled in a Storz 4 mm diameter light guide 2. The output of this light guide is imaged on the tissue sample 3 with a projection objective 4 (Nikon, Japan; A F Nikkor; 1:1.4 D/50 mm) to generate a homogenous spot of 2.5 cm in diameter with an irradiance of 2 mW/cm^2 at 635 nm. The distance between this projection objective 4 and the sample 3 is 25 cm. Therefore, the light beam illuminating the sample can be considered as parallel. The fluorescence is collected by another objective 5 (Fujinon, Japan; TV zoom lens; 1:1.2/12.5-75 mm; Type H6X12.5R-MD3) through a longpass filter 6 (Schott, Germany; RG665) and the image detected by a scientific CCD camera (752×582 pixels CF 8/1 Kappa, Gleichen, Germany) equipped 7 with an image intensifier (Proxifier BV 256-2FcZ-CH, Proxitronic, Bensheim, Germany). The images are captured by the 8-bits camera frame grabber and saved on the computer 8 with the “Kappa Imagebase-control” software. Image treatment is carried out using the IPLab imaging software. The spatial resolution of the complete setup has been measured with an USAF resolution target and the value we obtained in the sample plan is 3 lp/mm, the size of the image detected by the camera being 3×4 cm^2.
A reference sample is been designed to enable a comparison of the relative fluorescence brightness between samples investigated at different times. This reference consists of a ruby disk (diameter: 12 mm; thickness: 1.02 mm; Type 8Sp3, Hans Stettler S A, Lyss, Switzerland) covered with a neutral density filter (T=2.27%) so that the signal obtained with this reference sample corresponds to the typical tissue fluorescence detected in our conditions. The images are analyzed using the NIH image software. […]

[3] = tested on: hair follicles; experiment: Fluorescence imaging of skin after hair removal (selectivity for hair follicle); assay type: in vivo, human; settings: for distribution of fluorescence on skin: 20 wt. % formulation, applied after epilation
Experimental: FIGS. 1-10 are fluorescence images of human forearm or leg skin areas of 2.5 cm in diameter, the pictures being taken three hours after administration of different photosensitizer precursors under variable experimental conditions.
FIGS. 1A-B are fluorescence photographs of human skin to which compounds of the invention were applied. A formulation containing phenylalanin-ALA-amide (compound 1) at 80 wt. % was topically applied to the skin and pictures were taken 3 hours following administration. In FIG. 1A, skin was not pre-treated and fluorescence was measured with 20 milliseconds (ms) exposure time. In FIG. 1B, hair was mechanically removed by wax-epilation before administration of the formulation and fluorescence was measured with 10 milliseconds (ms) exposure time.
Formulations comprising compounds of the invention and controls are administered topically on the forearm or the leg using the Tegaderm™ transparent dressing. This dressing enables the transport of water and oxygen according to the specifications of the manufacturer. […]
A fluorescence imaging system illustrated in FIG. IX of WO 03/041673 is used to assess the extent and level of PpIX production in “macroscopic” samples (parts of the human body such as: forearm, leg, back, etc.). […] As the goal is to assess the relative level of PpIX, red light at 635 nm is chosen as PpIX fluorescence excitation wavelength. It is indeed well known that red light penetrates deeper in the cutaneous tissues than green and violet light, the later two wavelengths corresponding to larger PpIX absorption peaks (see the PpIX fluorescence excitation and emission spectra presented on the right side in FIG. IX of WO 03/041673).
As presented in the schematic diagram presented in FIG. IX of WO 03/041673, this fluorescence imaging system involves a modified 300 W D-light source 1 (Xe arc lamp from Storz, Tuttlingen, Germany) equipped with a red bandpass filter (635 nm, 20 nm FWHM; Chroma, USA). This fluorescence excitation light is coupled in a Storz 4 mm diameter light guide 2. […]

[4] = tested on: sebaceous gland; experiment: Microscopic fluorescence image of tissue sample; settings: formulation comprising 20 wt. %
[5] = tested on: Propionobacterium acnes; experiment: Photodestruction of P. acnes immediately after PDT; assay type: in vivo, human; settings: face of a volunteer
Excerpt: Immediately after illumination, the bacteria present on the administration zone are collected by immersion in a collection buffer allowing bacteria to detach and survive in suspension. Collection samples are inoculated, after suitable dilution, on agar plates, which are selective for p. acnes. CFU (Colony Forming Units) are counted after 5 days of growth on selective medium.

[6] = tested on: psoriatic plaque
Experimental: ALA-DGME 5% is prepared in Cold cream as in the previous example. 50 mg of 5% ALA-DGME in Cold cream are applied to the psoriatic plaque. 3 hours later, the zone which received ALA-DGME is exposed to 10-30 J/cm^2 of red light. The treatment is repeated 6 times with a 2 weeks interval.

[7] = tested on: Pytirosporum ovale; experiment: Photodestruction of the yeast P. ovale 24 hours after PDT; assay type: in vivo, human; settings: 5 wt. % in Cold cream; 3 hours, then 5-15 J/cm^2 red light; 24 hours after light exposure
Experimental: 24 hours after the end of the light exposure, scales are collected using a patch-strip method (D-Squame. Cuderm Corp. Dallas. US) and P. ovale can be counted under fluorescence microscope using a fluorochrome which is selective for this type of yeast (Fungiqual A. Kandern. D E).

[8] = tested on: skin area affected with seborrheic dermatitis; experiment: Cosmetic PDT treatment of seborrheic dermatitis; assay type: in vivo, human; settings: 5% in Cold cream
[9] = skin treatment: No (intact skin)
[10] = skin treatment: SC removed by dry shaving
[11] = fluorescence on intact skin relative to skin with SC removed

Row | Compound | Fluoresence epidermis [2, 9] | Fluoresence epidermis [2, 10] | Penetration through epidermis (%) [2, 11] | further results
1 | NCC(=O)CCC(=O)O [ALA, 5-aminolevulinic acid, reference compound] | 31 arbitrary relative units | 52 arbitrary relative units | – | allergenic potential [1]: has not demonstrated such an allergenic potential; Penetration through epidermis (%) ([2]; human): 59.6%; distribution of fluorescence on skin [3]: fluorescence is non-specific and uniformly distributed over the entire skin area
2 | CCOCCOCCOC(=O)CCC(=O)CN [ALA-DGME, diethylene-glycol monoethyl ether ester of ALA] | 20 arbitrary relative units | 57 arbitrary relative units | 35.1% | fluorescence in tissue sample (microscopic image) [4]: fluorescence in sebaceous gland; distribution of fluorescence on skin [3]: fluorescence is discretely associated to specific small spots; adverse reaction on the skin ([5]; 5% in Cold cream plus red light): No adverse reaction was observed; reduction in Propionobacerium acnes counts (CFU) ([5]; 5% in Cold cream, 3 hours, then 5-15 J/cm^2 red light, immediately after illumination): suitable to kill microorganism present on the skin; also recorded: substantial reduction of bacterial counts; psoriasis plaque after several PDT treatments ([6]; 5% in Cold cream, 10-30 J/cm^2 red light, repeated 6 times with 2 weeks interval): partial clearance; accumulation of photosensitizer in psoriasis lesions (red fluorescence) ([6]; 5% in Cold cream, 3 hours): accumulated specifically in the psoriasis lesions; side effects to the surrounding skin ([6]; after several PDT treatments, 5% in Cold cream): no side effects to the surrounding skin; selectivity of fluorescence for psoriasis plaque ([6]; formulation comprising 20 wt. % (figure legend)): red fluorescence covering the psoriasis plaque solely; reduction in Pytirosporum ovale counts [7]: substantial reduction of yeast counts; side effects to the surrounding skin ([8]; 24 hours after PDT): no side effects to the surrounding skin; skin reaction after PDT ([8]; 24 hours after PDT, 5-15 J/cm^2 red light): slight redness; selectivity of fluorescence for affected skin ([8]; topically applied on skin with seborrheic dermatitis, 3 hours): accumulated specifically in the skin area affected with SD; also recorded: only affected skin area shows red fluorescence
3 | NCC(=O)CCC(=O)NC(Cc1ccccc1)C(=O)O (stereo not shown) [Compound 1, Phenylalanine-ALA-amide] | – | – | – | fluorescence at positions of hair follicles ([3]; 80 wt. % formulation, hair removed by wax-epilation, 3 hours after administration, 10 ms exposure): spots of high fluorescence
4 | NCC(=O)CCC(=O)Oc1ccc(CC(N)C(=O)O)cc1 (stereo not shown) [Compound 2, Tyrosine-ALA-ester] | 0 arbitrary relative units | 114 arbitrary relative units | – | –
5 | CC(C)CCCC(C)C1CCC2C3CC=C4CC(OC(=O)CCC(=O)CN)CCC4(C)C3CCC12C (stereo not shown) [Compound 6, ALA-Cholesteryl-ester] | 1 arbitrary relative units | 25 arbitrary relative units | – | increase of fluorescence upon removal of the stratum corneum [2]: 25 fold; Penetration through epidermis (%) ([2]; human): 4%
6 | NCC(=O)CCC(=O)O[C@H]1O[C@H](CO)[C@@H](O)[C@H](O)[C@H]1O [Compound 11, 1′-α-D-Glucose-ALA-ester] | 0 arbitrary relative units | 12 arbitrary relative units | 0% | –
7 | NCC(=O)CCC(=O)OCC(O)C1OC(=O)C(O)=C1O (stereo not shown) [Compound 12, ALA-ascorbate-ester] | 4 arbitrary relative units | 20 arbitrary relative units | – | –
8 | CCCCCCOC(=O)CCC(=O)CN [Hexyl-ALA-ester, reference compound] | 37 arbitrary relative units | 88 arbitrary relative units | – | Penetration through epidermis (%) [2]: 42%
9 | ALA-Cholesterylhexyl-ester [Compound 5] | 7 arbitrary relative units | 94 arbitrary relative units | 7.44% | –
10 | ALA-ethyl-ester-ALA [Compound 8] | 30 arbitrary relative units | 225 arbitrary relative units | 13.3% | increase of fluorescence upon removal of the stratum corneum [2]: 7.5 fold; Penetration through epidermis (%) ([2]; fluorescence on intact skin relative to skin with SC removed, listed as compound 8): 13.3%
11 | Phloroglucinol-tri-ALA-ester [Compound 7] | 30 arbitrary relative units | 187 arbitrary relative units | 16% | –
